# Test results reported in article PMC5152921, “Evolutionary and Functional Diversification of the Vitamin D Receptor-Lithocholic Acid Partnership” (PLoS ONE, 2016).
# Experiments:
# Experiment in all cases: Mammalian 2-hybrid assay (VDR-coregulator interaction, HepG2)
# Assay type in all cases: cell-based
# Details in all cases: 100 μM LCA
# Bichir VDR = biological target: T1, Bichir VDR (Polypterus senegalus, UniProt A0A088GJ14)
# T1 sequence (A0A088GJ14 1-421): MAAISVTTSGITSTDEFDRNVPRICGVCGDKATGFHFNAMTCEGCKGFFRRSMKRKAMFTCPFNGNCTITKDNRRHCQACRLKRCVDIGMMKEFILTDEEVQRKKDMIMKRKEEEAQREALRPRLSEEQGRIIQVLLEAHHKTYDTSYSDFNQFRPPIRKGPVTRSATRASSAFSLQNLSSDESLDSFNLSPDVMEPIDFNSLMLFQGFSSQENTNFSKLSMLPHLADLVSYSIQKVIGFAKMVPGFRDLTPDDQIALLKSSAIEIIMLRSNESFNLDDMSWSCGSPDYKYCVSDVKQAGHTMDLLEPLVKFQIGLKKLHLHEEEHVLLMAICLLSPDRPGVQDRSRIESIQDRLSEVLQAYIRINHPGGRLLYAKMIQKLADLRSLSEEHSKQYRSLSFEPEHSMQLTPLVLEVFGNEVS
# T1 sequence (P19793 1-462 partner): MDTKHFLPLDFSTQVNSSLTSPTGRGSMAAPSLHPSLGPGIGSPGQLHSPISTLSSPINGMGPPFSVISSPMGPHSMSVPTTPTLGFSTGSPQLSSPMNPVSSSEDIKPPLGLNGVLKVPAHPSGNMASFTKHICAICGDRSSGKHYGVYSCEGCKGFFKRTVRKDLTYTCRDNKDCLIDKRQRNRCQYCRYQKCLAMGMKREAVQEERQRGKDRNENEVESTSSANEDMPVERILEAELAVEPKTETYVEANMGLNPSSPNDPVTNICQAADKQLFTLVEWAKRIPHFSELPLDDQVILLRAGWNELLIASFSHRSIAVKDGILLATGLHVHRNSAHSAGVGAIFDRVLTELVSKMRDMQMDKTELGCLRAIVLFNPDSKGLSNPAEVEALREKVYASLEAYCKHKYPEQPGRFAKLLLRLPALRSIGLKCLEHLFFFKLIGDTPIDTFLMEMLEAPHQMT
# Text: (§1) Prey constructs included full-length VDRs fused to the herpes simplex VP16 activation domain (pVP16-VDR). Bait constructs consisted of either full-length wild-type human RXR (pM-RXRWT), a truncated human RXR mutant (pM-RXRAF2), or the defined NR box of each member of the SRC/p160 family (pM-SRC1_241-386, pM-GRIP1_479-767, or pM-ACTR392-1005) fused to the yeast Gal4 DNA-binding domain. Reporters included the Gal4 luciferase reporter (5xGal4-TATA-Luc) and pRL-CMV as an internal luciferase control.
# (§2) HepG2 cells were seeded into 96-well tissue culture plates as described above and transfected with Lipofectamine 2000 the following day. Each well received 33.6 ng pVP16-VDR, 33.6 ng pM-coregulator (where indicated), 126.6 ng 5XGal4-TATA-Luc, and 3 ng pRL-CMV. […] Positive controls were treated with 1,25D3 and vehicle controls were treated with ethanol. Luciferase activity was measured 24 hours post-exposure using the Dual-Glo Luciferase Assay System described above. Raw luciferase data were normalized to the pRL-CMV luciferase control. VDR-coregulator response was normalized to the pVP16-VDR in the absence of bait constructs. Results were analyzed using a two-way ANOVA followed by Bonferroni’s multiple comparisons test in Prism (GraphPad Inc, San Diego, CA). All experiments were replicated 3 times and conducted as groups of 4 replicate wells.
# Lamprey VDR = biological target: T2, Lamprey VDR (Petromyzon marinus, UniProt Q7ZZY9)
# T2 sequence (Q7ZZY9 1-406): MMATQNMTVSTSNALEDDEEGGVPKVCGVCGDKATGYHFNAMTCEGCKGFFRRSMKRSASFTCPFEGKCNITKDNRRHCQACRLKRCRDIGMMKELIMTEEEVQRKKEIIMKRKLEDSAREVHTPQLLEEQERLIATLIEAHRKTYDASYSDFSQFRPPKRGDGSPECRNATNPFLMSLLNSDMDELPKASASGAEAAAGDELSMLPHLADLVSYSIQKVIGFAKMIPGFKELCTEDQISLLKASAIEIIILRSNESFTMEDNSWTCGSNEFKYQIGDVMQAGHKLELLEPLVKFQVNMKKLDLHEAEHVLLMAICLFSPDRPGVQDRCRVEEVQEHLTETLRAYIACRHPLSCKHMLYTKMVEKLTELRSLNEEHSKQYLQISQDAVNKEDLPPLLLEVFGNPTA
# T2 sequence (P19793 1-462 partner): T1 sequence (P19793 1-462 partner)
# Text: as §1, §2
# Zebrafish VDRα = biological target: T3, Zebrafish VDRα (Danio rerio, UniProt Q9PTN2)
# T3 construct: 89.7 ng/well of full-length pSG5-VDR was co-transfected; expressed in transfected cells; host or cells: HepG2
# T3 sequence (Q9PTN2 1-453): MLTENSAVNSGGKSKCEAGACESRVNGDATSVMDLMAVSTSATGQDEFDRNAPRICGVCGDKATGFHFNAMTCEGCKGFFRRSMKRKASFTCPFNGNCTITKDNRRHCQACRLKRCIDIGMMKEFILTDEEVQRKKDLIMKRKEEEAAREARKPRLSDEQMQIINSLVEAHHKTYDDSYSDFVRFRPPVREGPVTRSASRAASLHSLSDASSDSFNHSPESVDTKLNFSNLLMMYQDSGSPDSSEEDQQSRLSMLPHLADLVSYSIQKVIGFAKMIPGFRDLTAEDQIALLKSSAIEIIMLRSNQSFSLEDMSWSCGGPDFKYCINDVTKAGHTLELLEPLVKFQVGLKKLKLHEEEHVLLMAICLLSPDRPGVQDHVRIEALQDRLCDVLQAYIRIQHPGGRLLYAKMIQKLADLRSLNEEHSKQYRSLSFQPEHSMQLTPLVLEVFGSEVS
# Text: as §1, §2
# [1] = any of the SRC/p160 coactivators
# [2] = bait human RXRWT, presence and absence of SRC1
smiles,measurement,setting,value
"C[C@H](CCC(=O)O)[C@H]1CC[C@H]2[C@@H]3CC[C@@H]4C[C@H](O)CC[C@]4(C)[C@H]3CC[C@]12C [LCA, 5β-cholanic acid-3α-ol]",VDR-SRC/p160 coactivator interaction,Bichir VDR; [1],No protein-protein interaction was observed
same,VDR-RXRWT interaction (heterodimerization),Bichir VDR; [2],not observed
same,VDR-SRC/p160 coactivator interaction,Lamprey VDR; [1],No protein-protein interaction was observed
same,VDR-RXRWT interaction (heterodimerization),Lamprey VDR; [2],not observed
same,VDR-SRC1 interaction,Zebrafish VDRα; absence of cotransfected RXRWT,successfully recruited SRC1
same,VDR-RXRWT interaction (heterodimerization),Zebrafish VDRα; bait human RXRWT,Robust and significant VDR-RXRWT interactions
same,VDR-SRC1 interaction,Zebrafish VDRα; cotransfection of RXRWT,strong VDR-SRC1 interactions
